Laboratory results from patent US20250230193A1, “CYCLIC COMPOUND HAVING SELECTIVE KRAS INHIBITORY EFFECT ON HRAS AND NRAS” (CHUGAI SEIYAKU KABUSHIKI KAISHA, priority 2022, published 2025).
*1 amine or outer side, *2 acyl side, *3 side chain or, on linkers, in order; H or OH if unused. Where a SMILES comes first, the peptide text is derived from it. Bridges are numbered along the chain shown (N, C = ends). [ ]: non-standard residue; d: D form. The star is where a group is joined. hPhe(3-Cl-4-CF3) = N[C@@H](CCc1ccc(C(F)(F)F)c(Cl)c1)C(=O)O; NPrPhe(4-CF3) = CCCN[C@@H](Cc1ccc(C(F)(F)F)cc1)C(=O)O; Abu(4,4,4-F3) = N[C@@H](CC(F)(F)F)C(=O)O; X38 = C[C@@H]1CN([*:1])[C@@H]1C(=O)[*:2]; NMeGly(cPent) = CN[C@H](C(=O)O)C1CCCC1; X46 = CC1(C)CN([*:1])[C@@H]1C(=O)[*:2]; Aze(3S-Me) = C[C@H]1CN[C@@H]1C(=O)O; cisHyp = O=C(O)[C@@H]1C[C@H](O)CN1; Hyp = O=C(O)[C@@H]1C[C@@H](O)CN1; Gly(cBu) = N[C@H](C(=O)O)C1CCC1; NMeD = CN[C@@H](CC(=O)O)C(=O)O; NMeL = CN[C@@H](CC(C)C)C(=O)O; X14 = N#CCN(CC(=O)[*:2])[*:1]; Morpholide = C1CN(*)CCO1; Ac5c = NC1(C(=O)O)CCCC1; NcPrGly = O=C(O)CNC1CC1; Abu = CC[C@H](N)C(=O)O; NPrGly = CCCNCC(=O)O; Sar = CNCC(=O)O

Legend:
[1] = molecular target: GDP-bound NRAS wild-type protein (Homo sapiens, UniProt P01111); assay: Binding to NRAS by surface plasmon resonance (SPR), Single Cycle Kinetics; conditions: KD ratio NRAS/KRAS, SPR
GDP-bound NRAS wild-type protein, sequence (P01111 whole entry): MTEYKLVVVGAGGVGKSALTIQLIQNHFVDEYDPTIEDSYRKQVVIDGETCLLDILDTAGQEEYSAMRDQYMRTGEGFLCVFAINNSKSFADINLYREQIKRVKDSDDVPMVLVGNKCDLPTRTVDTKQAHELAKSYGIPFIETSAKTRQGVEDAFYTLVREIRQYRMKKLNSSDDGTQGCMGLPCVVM

[2] = molecular target: GDP-bound HRAS wild-type protein (Homo sapiens, UniProt P01112); assay: Binding to HRAS by surface plasmon resonance (SPR), Single Cycle Kinetics; conditions: KD ratio HRAS/KRAS, SPR
GDP-bound HRAS wild-type protein, sequence (P01112 whole entry): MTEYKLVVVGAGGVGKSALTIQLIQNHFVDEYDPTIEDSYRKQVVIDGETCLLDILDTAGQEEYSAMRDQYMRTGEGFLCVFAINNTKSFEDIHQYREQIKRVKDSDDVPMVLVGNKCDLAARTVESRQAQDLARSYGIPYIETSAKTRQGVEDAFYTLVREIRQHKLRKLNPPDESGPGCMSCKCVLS

| SMILES | NRAS/KRAS (ratio of KD for GDP-bound NRAS wild-type to KD for KRAS) [1] | HRAS/KRAS (ratio of KD for GDP-bound HRAS wild-type to KD for KRAS) [2] |
| --- | --- | --- |
| CCCN1C(=O)[C@@H]2CCN2C(=O)[C@H](C)N(C)C(=O)[C@H]([C@@H](C)CC)NC(=O)[C@H](CC(C)C)N(C)C(=O)C[C@@H](C(=O)N2CCOCC2)N(C)C(=O)[C@H](C2CCCC2)N(C)C(=O)C2(CCCC2)NC(=O)[C@@H]2C[C@@H](O)CN2C(=O)[C@H](CCc2ccc(C(F)(F)F)c(Cl)c2)NC(=O)CN(C)C(=O)[C@@H]1Cc1ccc(C(F)(F)F)cc1 [PP0239] | C (A compound having a KD ratio of 0.1 or more and less than 3 is denoted as C) | B (a compound having 3 or more and less than 10 is denoted as B) |
| CCCN1C(=O)CN(C)C(=O)CN(C)C(=O)[C@H]([C@@H](C)CC)NC(=O)[C@H](CC(C)C)N(C)C(=O)C[C@@H](C(=O)N2CCOCC2)N(C)C(=O)[C@H](C2CCCC2)N(C)C(=O)C2(CCCC2)NC(=O)[C@@H]2C[C@H](O)CN2C(=O)[C@H](CCc2ccc(C(F)(F)F)c(Cl)c2)NC(=O)CN(C)C(=O)[C@@H]1Cc1ccc(C(F)(F)F)cc1 [PP0240] ([NMeL]I[Sar][Sar][NPrPhe(4-CF3)][Sar][hPhe(3-Cl-4-CF3)][cisHyp][Ac5c][NMeGly(cPent)][NMeD]-Morpholide; lactam N-11) | B (a compound having 3 or more and less than 10 is denoted as B) | C (A compound having a KD ratio of 0.1 or more and less than 3 is denoted as C) |
| CCCN1C(=O)CN(C)C(=O)CN(C)C(=O)[C@H]([C@@H](C)CC)NC(=O)[C@H](CC(C)C)N(C)C(=O)C[C@@H](C(=O)N2CCOCC2)N(C)C(=O)[C@H](C2CCCC2)N(C)C(=O)C2(CCCC2)NC(=O)[C@@H]2C[C@@H](O)CN2C(=O)[C@H](CCc2ccc(C(F)(F)F)c(Cl)c2)NC(=O)CN(C)C(=O)[C@@H]1Cc1ccc(C(F)(F)F)cc1 [PP0241] ([NMeL]I[Sar][Sar][NPrPhe(4-CF3)][Sar][hPhe(3-Cl-4-CF3)][Hyp][Ac5c][NMeGly(cPent)][NMeD]-Morpholide; lactam N-11) | B (a compound having 3 or more and less than 10 is denoted as B) | C (A compound having a KD ratio of 0.1 or more and less than 3 is denoted as C) |
| CCCN1C(=O)CN(C)C(=O)CN(C)C(=O)[C@H]([C@@H](C)CC)NC(=O)[C@H](CC(C)C)N(C)C(=O)C[C@@H](C(=O)N2CCOCC2)N(C)C(=O)[C@H](C2CCCC2)N(C)C(=O)C2(CCCC2)NC(=O)[C@@H]2C[C@H](OCC)CN2C(=O)[C@H](CCc2ccc(C(F)(F)F)c(Cl)c2)NC(=O)CN(C)C(=O)[C@@H]1Cc1ccc(C(F)(F)F)cc1 [PP0243] ([NMeL]I[Sar][Sar][NPrPhe(4-CF3)][Sar][hPhe(3-Cl-4-CF3)][cisHyp](Et)[Ac5c][NMeGly(cPent)][NMeD]-Morpholide; lactam N-11) | B (a compound having 3 or more and less than 10 is denoted as B) | C (A compound having a KD ratio of 0.1 or more and less than 3 is denoted as C) |
| CCCN1C(=O)CN(C)C(=O)CN(C)C(=O)[C@H](CC)NC(=O)[C@H](CC(C)C)N(C)C(=O)C[C@@H](C(=O)N2CCOCC2)N(C)C(=O)[C@H](C2CCCC2)N(C)C(=O)C2(CCCC2)NC(=O)[C@@H]2CCCN2C(=O)[C@H](CCc2ccc(C(F)(F)F)c(Cl)c2)NC(=O)CN(C)C(=O)[C@@H]1Cc1ccc(C(F)(F)F)cc1 [PP0248] ([NMeL][Abu][Sar][Sar][NPrPhe(4-CF3)][Sar][hPhe(3-Cl-4-CF3)]P[Ac5c][NMeGly(cPent)][NMeD]-Morpholide; lactam N-11) | B (a compound having 3 or more and less than 10 is denoted as B) | B (a compound having 3 or more and less than 10 is denoted as B) |
| CCCN1C(=O)CN(C)C(=O)CN(C)C(=O)[C@H](CC(F)(F)F)NC(=O)[C@H](CC(C)C)N(C)C(=O)C[C@@H](C(=O)N2CCOCC2)N(C)C(=O)[C@H](C2CCCC2)N(C)C(=O)C2(CCCC2)NC(=O)[C@@H]2CCCN2C(=O)[C@H](CCc2ccc(C(F)(F)F)c(Cl)c2)NC(=O)CN(C)C(=O)[C@@H]1Cc1ccc(C(F)(F)F)cc1 [PP0249] ([NMeL][Abu(4,4,4-F3)][Sar][Sar][NPrPhe(4-CF3)][Sar][hPhe(3-Cl-4-CF3)]P[Ac5c][NMeGly(cPent)][NMeD]-Morpholide; lactam N-11) | B (a compound having 3 or more and less than 10 is denoted as B) | C (A compound having a KD ratio of 0.1 or more and less than 3 is denoted as C) |
| CCCN1C(=O)CN(C)C(=O)CN(C)C(=O)[C@H](C2CCC2)NC(=O)[C@H](CC(C)C)N(C)C(=O)C[C@@H](C(=O)N2CCOCC2)N(C)C(=O)[C@H](C2CCCC2)N(C)C(=O)C2(CCCC2)NC(=O)[C@@H]2CCCN2C(=O)[C@H](CCc2ccc(C(F)(F)F)c(Cl)c2)NC(=O)CN(C)C(=O)[C@@H]1Cc1ccc(C(F)(F)F)cc1 [PP0250] ([NMeL][Gly(cBu)][Sar][Sar][NPrPhe(4-CF3)][Sar][hPhe(3-Cl-4-CF3)]P[Ac5c][NMeGly(cPent)][NMeD]-Morpholide; lactam N-11) | B (a compound having 3 or more and less than 10 is denoted as B) | C (A compound having a KD ratio of 0.1 or more and less than 3 is denoted as C) |
| CCCN1C(=O)CN(C)C(=O)CN(C2CC2)C(=O)[C@H]([C@@H](C)CC)NC(=O)[C@H](CC(C)C)N(C)C(=O)C[C@@H](C(=O)N2CCOCC2)N(C)C(=O)[C@H](C2CCCC2)N(C)C(=O)C2(CCCC2)NC(=O)[C@@H]2CCCN2C(=O)[C@H](CCc2ccc(C(F)(F)F)c(Cl)c2)NC(=O)CN(C)C(=O)[C@@H]1Cc1ccc(C(F)(F)F)cc1 [PP0252] ([NMeL]I[NcPrGly][Sar][NPrPhe(4-CF3)][Sar][hPhe(3-Cl-4-CF3)]P[Ac5c][NMeGly(cPent)][NMeD]-Morpholide; lactam N-11) | B (a compound having 3 or more and less than 10 is denoted as B) | B (a compound having 3 or more and less than 10 is denoted as B) |
| CCCN1CC(=O)N(C)CC(=O)N(CCC)[C@@H](Cc2ccc(C(F)(F)F)cc2)C(=O)N(C)CC(=O)N[C@@H](CCc2ccc(C(F)(F)F)c(Cl)c2)C(=O)N2CCC[C@H]2C(=O)NC2(CCCC2)C(=O)N(C)[C@@H](C2CCCC2)C(=O)N(C)[C@H](C(=O)N2CCOCC2)CC(=O)N(C)[C@@H](CC(C)C)C(=O)N[C@@H]([C@@H](C)CC)C1=O [PP0253] ([NMeL]I[NPrGly][Sar][NPrPhe(4-CF3)][Sar][hPhe(3-Cl-4-CF3)]P[Ac5c][NMeGly(cPent)][NMeD]-Morpholide; lactam N-11) | B (a compound having 3 or more and less than 10 is denoted as B) | B (a compound having 3 or more and less than 10 is denoted as B) |
| CCCN1C(=O)CN(C)C(=O)CN(CC#N)C(=O)[C@H]([C@@H](C)CC)NC(=O)[C@H](CC(C)C)N(C)C(=O)C[C@@H](C(=O)N2CCOCC2)N(C)C(=O)[C@H](C2CCCC2)N(C)C(=O)C2(CCCC2)NC(=O)[C@@H]2CCCN2C(=O)[C@H](CCc2ccc(C(F)(F)F)c(Cl)c2)NC(=O)CN(C)C(=O)[C@@H]1Cc1ccc(C(F)(F)F)cc1 [PP0254] ([NMeL]I[X14][Sar][NPrPhe(4-CF3)][Sar][hPhe(3-Cl-4-CF3)]P[Ac5c][NMeGly(cPent)][NMeD]-Morpholide; lactam N-11) | B (a compound having 3 or more and less than 10 is denoted as B) | C (A compound having a KD ratio of 0.1 or more and less than 3 is denoted as C) |
| CCCN1C(=O)CN(C)C(=O)[C@H]2N(CC2(C)C)C(=O)[C@H]([C@@H](C)CC)NC(=O)[C@H](CC(C)C)N(C)C(=O)C[C@@H](C(=O)N2CCOCC2)N(C)C(=O)[C@H](C2CCCC2)N(C)C(=O)C2(CCCC2)NC(=O)[C@@H]2CCCN2C(=O)[C@H](CCc2ccc(C(F)(F)F)c(Cl)c2)NC(=O)CN(C)C(=O)[C@@H]1Cc1ccc(C(F)(F)F)cc1 [PP0256] ([NMeL]I[X46][Sar][NPrPhe(4-CF3)][Sar][hPhe(3-Cl-4-CF3)]P[Ac5c][NMeGly(cPent)][NMeD]-Morpholide; lactam N-11) | B (a compound having 3 or more and less than 10 is denoted as B) | C (A compound having a KD ratio of 0.1 or more and less than 3 is denoted as C) |
| CCCN1C(=O)CN(C)C(=O)[C@@H]2[C@H](C)CN2C(=O)[C@H]([C@@H](C)CC)NC(=O)[C@H](CC(C)C)N(C)C(=O)C[C@@H](C(=O)N2CCOCC2)N(C)C(=O)[C@H](C2CCCC2)N(C)C(=O)C2(CCCC2)NC(=O)[C@@H]2CCCN2C(=O)[C@H](CCc2ccc(C(F)(F)F)c(Cl)c2)NC(=O)CN(C)C(=O)[C@@H]1Cc1ccc(C(F)(F)F)cc1 [PP0257] ([NMeL]I[X38][Sar][NPrPhe(4-CF3)][Sar][hPhe(3-Cl-4-CF3)]P[Ac5c][NMeGly(cPent)][NMeD]-Morpholide; lactam N-11) | B (a compound having 3 or more and less than 10 is denoted as B) | B (a compound having 3 or more and less than 10 is denoted as B) |
| CCCN1C(=O)CN(C)C(=O)[C@@H]2[C@@H](C)CN2C(=O)[C@H]([C@@H](C)CC)NC(=O)[C@H](CC(C)C)N(C)C(=O)C[C@@H](C(=O)N2CCOCC2)N(C)C(=O)[C@H](C2CCCC2)N(C)C(=O)C2(CCCC2)NC(=O)[C@@H]2CCCN2C(=O)[C@H](CCc2ccc(C(F)(F)F)c(Cl)c2)NC(=O)CN(C)C(=O)[C@@H]1Cc1ccc(C(F)(F)F)cc1 [PP0258] ([NMeL]I[Aze(3S-Me)][Sar][NPrPhe(4-CF3)][Sar][hPhe(3-Cl-4-CF3)]P[Ac5c][NMeGly(cPent)][NMeD]-Morpholide; lactam N-11) | B (a compound having 3 or more and less than 10 is denoted as B) | C (A compound having a KD ratio of 0.1 or more and less than 3 is denoted as C) |
